Assay results: the NIST ThermoML archive (doi:10.1007/s10765-013-1526-8)

Legend:
[1] = refractive index (Na D-line) (dimensionless); xn = mol fraction of the nth substance listed; conditions: 101 kPa, Liquid
[2] = xn = mol fraction of the nth substance listed; conditions: 101 kPa, Liquid; for speed of sound: Sing-around technique in a fixed-path interferometer

Brc1ccccc1 [bromobenzene] + CCCCC(CC)CO
Conditions | mass density, [2] [kg/m3] | refractive index, [1] | speed of sound, [2] [m/s] | viscosity, [2] [mPa·s]
298.15 K, x1 = 0.0623 | 846.06 | 1.4348 | 1305 | 7.004
298.15 K, x1 = 0.1321 | 869.44 | 1.4416 | 1295 | 5.672
298.15 K, x1 = 0.202 | 895.09 | 1.4486 | 1290 | 4.56
298.15 K, x1 = 0.2694 | 924.23 | 1.4554 | 1285 | 3.717
298.15 K, x1 = 0.336 | 956.85 | 1.4625 | 1281 | 3.044
298.15 K, x1 = 0.3981 | 991.69 | 1.4693 | 1279 | 2.553
298.15 K, x1 = 0.4625 | 1031.18 | 1.4767 | 1277 | 2.187
298.15 K, x1 = 0.5272 | 1074.92 | 1.4844 | 1273 | 1.923
298.15 K, x1 = 0.5918 | 1122.9 | 1.4925 | 1268 | 1.728
298.15 K, x1 = 0.6627 | 1179.58 | 1.502 | 1259 | 1.594
298.15 K, x1 = 0.7278 | 1235.29 | 1.5112 | 1248 | 1.49
298.15 K, x1 = 0.7941 | 1295.12 | 1.5212 | 1236 | 1.444
298.15 K, x1 = 0.8633 | 1359.7 | 1.5325 | 1216 | 1.359
298.15 K, x1 = 0.9266 | 1418.41 | 1.5433 | 1194 | 1.266
298.15 K, x1 = 1 | 1488.12 | 1.557 | 1153 | 1.065
303.15 K, x1 = 0.0623 | 842.3 | 1.4332 | 1291 | 5.889
303.15 K, x1 = 0.1321 | 864.98 | 1.4403 | 1282 | 4.765
303.15 K, x1 = 0.202 | 891.19 | 1.4472 | 1276 | 3.838
303.15 K, x1 = 0.2694 | 920.76 | 1.4542 | 1272 | 3.126
303.15 K, x1 = 0.336 | 952.81 | 1.4611 | 1270 | 2.577
303.15 K, x1 = 0.3981 | 986.69 | 1.4678 | 1268 | 2.197
303.15 K, x1 = 0.4625 | 1026.09 | 1.475 | 1266 | 1.907
303.15 K, x1 = 0.5272 | 1069.83 | 1.4826 | 1264 | 1.702
303.15 K, x1 = 0.5918 | 1117.3 | 1.4906 | 1261 | 1.548
303.15 K, x1 = 0.6627 | 1173.8 | 1.5 | 1254 | 1.458
303.15 K, x1 = 0.7278 | 1229.12 | 1.5092 | 1241 | 1.39
303.15 K, x1 = 0.7941 | 1288.41 | 1.5191 | 1226 | 1.355
303.15 K, x1 = 0.8633 | 1351.6 | 1.5303 | 1206 | 1.297
303.15 K, x1 = 0.9266 | 1410.1 | 1.5412 | 1183 | 1.205
303.15 K, x1 = 1 | 1481.4 | 1.555 | 1138 | 1.005
308.15 K, x1 = 0.0623 | 837.02 | 1.4306 | 1279 | 5.101
308.15 K, x1 = 0.1321 | 859.74 | 1.4376 | 1273 | 4.181
308.15 K, x1 = 0.202 | 886.06 | 1.4447 | 1267 | 3.414
308.15 K, x1 = 0.2694 | 915.17 | 1.4517 | 1263 | 2.814
308.15 K, x1 = 0.336 | 947.49 | 1.4587 | 1259 | 2.35
308.15 K, x1 = 0.3981 | 981.89 | 1.4655 | 1254 | 2.004
308.15 K, x1 = 0.4625 | 1021.03 | 1.4728 | 1251 | 1.722
308.15 K, x1 = 0.5272 | 1064.57 | 1.4805 | 1247 | 1.522
308.15 K, x1 = 0.5918 | 1111.88 | 1.4886 | 1241 | 1.37
308.15 K, x1 = 0.6627 | 1168.02 | 1.4981 | 1232 | 1.265
308.15 K, x1 = 0.7278 | 1222.21 | 1.5072 | 1218 | 1.192
308.15 K, x1 = 0.7941 | 1279.2 | 1.5171 | 1203 | 1.149
308.15 K, x1 = 0.8633 | 1339.82 | 1.528 | 1183 | 1.099
308.15 K, x1 = 0.9266 | 1398.8 | 1.5388 | 1161 | 1.052
308.15 K, x1 = 1 | 1474.58 | 1.553 | 1122 | 0.972
